Legend:
[1] = test system: serum cholesterol, ovariectomized rats; assay: Serum cholesterol in ovariectomized rats (4 days daily oral dosing); format: in vivo, rat (female Sprague Dawley); conditions: Rattus norvegicus, 96 h, read-out: Serum Cholesterol (% decrease vs. OVX); for inhibition in vivo at 0.1 mg/kg: 0.1 mg/kg PO; for inhibition in vivo at 1 mg/kg: 1.0 mg/kg PO; for inhibition in vivo at 10 mg/kg: 10.0 mg/kg PO
Protocol: (§1) In the examples illustrating the methods, a postmenopausal model was used in which effects of different treatments upon circulating lipids were determined.
(§2) Seventy-five day old female Sprague Dawley rats (weight range of 200 to 225 g) were obtained from Charles River Laboratories (Portage, Mich.). The animals were either bilaterally ovariectomized (OVX) or exposed to a Sham surgical procedure at Charles River Laboratories, and then shipped after one week. Upon arrival, they were housed in metal hanging cages in groups of 3 or 4 per cage and had ad libitum access to food (calcium content approximately 0.5%) and water for one week. Room temperature was maintained at 22.2°±1.70° C. with a minimum relative humidity of 40%. The photoperiod in the room was 12 hours light and 12 hours dark.
(§3) After a one week acclimation period (therefore, two weeks post-OVX) daily dosing with test compound was initiated. […] Animals were dosed daily for 4 days. Following the dosing regimen, animals were weighed and anesthetized with a ketamine: Xylazine (2:1, V:V) mixture and a blood sample was collected by cardiac puncture. The animals were then sacrificed by asphyxiation with CO2, the uterus was removed through a midline incision, and a wet uterine weight was determined.
Blood samples were allowed to clot at room temperature for 2 hours, and serum was obtained following centrifugation for 10 minutes at 3000 rpm. Serum cholesterol was determined using a Boehringer Mannheim Diagnostics high performance cholesterol assay. Briefly the cholesterol was oxidized to cholest-4-en-3-one and hydrogen peroxide. The hydrogen peroxide was then reacted with phenol and 4-aminophenazone in the presence of peroxidase to produce a p-quinone imine dye, which was read spectrophotemetrically at 500 nm. Cholesterol concentration was then calculated against a standard curve. The entire assay was automated using a Biomek Automated Workstation. […]
(§4) The data presented in Table 1 below reflects the response of 5 to 6 rats per treatment.

[2] = test system: Uterine Eosinophil Peroxidase (EPO); assay: Uterine Eosinophil Peroxidase (EPO) Assay in ovariectomized rats; format: in vivo, rat (female Sprague Dawley); design: Uterine EPO (Vmax): unit not given here
Text: as §2, §3
Uteri were kept at 4° C. until time of enzymatic analysis. The uteri were then homogenized in 50 volumes of 50 mM Tris buffer (pH-8.0) containing 0.005% Triton X-100. Upon addition of 0.01% hydrogen peroxide and 10 mM O-phenylenediamine (final concentrations) in Tris buffer, increase in absorbance was monitored for one minute at 450 nm. The presence of eosonophils in the uterus is an indication of estrogenic activity of a compound. The maximal velocity of a 15 second interval was determined over the initial, linear portion of the reaction curve.
As is expressed in the data below, estrogenicity also was assessed by evaluating the adverse response of eosinophil infiltration into the uterus.
as §4

[3] = test system: MCF-7 breast adenocarcinoma cells; assay: MCF-7 Proliferation Assay (tritiated thymidine); format: cell-based; conditions: Homo sapiens, MCF7, 48 hours, read-out: IC50
Protocol: MCF-7 breast adenocarcinoma cells (ATCC HTB 22) were maintained in MEM (minimal essential medium, phenol red-free, Sigma, St. Louis, Mo.) supplimented with 10% fetal bovine serum (FBS) (V/V), L-glutamine (2 mM), sodium pyruvate (1 mM), HEPES {(N-[2-hydroxyethyl]piperazine-N'-[2-ethanesulfonic acid]10 mM}, non-essential amino acids and bovine insulin (1 ug/mL) (maintenance medium). Ten days prior to assay, MCF-7 cells were switched to maintenance medium supplemented with 10% dextran coated charcoal stripped fetal bovine serum (DCC-FBS) assay medium) in place of 10% FBS to deplete internal stores of steroids. MCF-7 cells were removed from maintenance flasks using cell dissociation medium (Ca++/Mg++ free HBSS (phenol red-free) supplemented with 10 mM HEPES and 2 mM EDTA). Cells were washed twice with assay medium and adjusted to 80,000 cells/mL. Approximately […] (8,000 cells) were added to flat-bottom microculture wells (Costar 3596) and incubated at 37° C. in a 5% CO2 humidified incubator for 48 hours to allow for cell adherence and equilibration after transfer. Serial dilutions of drugs or DMSO as a diluent control were prepared in assay medium and […] to triplicate microcultures followed by […] assay medium for a final volume of […]. After an additional 48 hours at 37° C. in a 5% CO2 humidified incubator, microcultures were pulsed with tritiated thymidine (1 uCi/well) for 4 hours. Cultures were terminated by freezing at -70° C. for 24 hours followed by thawing and harvesting of microcultures using a Skatron Semiautomatic Cell Harvester. Samples were counted by liquid scintillation using a Wallac BetaPlace b counter. Results in Table 4 below show the IC50 for certain compounds of the instant invention. […]

[4] = test system: uterus, ovariectomized rats; assay: Uterine weight in ovariectomized rats (4 days daily oral dosing); format: in vivo, rat (female Sprague Dawley); conditions: Rattus norvegicus, 96 h, read-out: Uterine weight (% increase vs. OVX); for change in vivo at 0.1 mg/kg: 0.1 mg/kg PO; for change in vivo at 1 mg/kg: 1.0 mg/kg PO; for change in vivo at 10 mg/kg: 10.0 mg/kg PO
Protocol: as §1, §2, §3
This uterine response to estrogen is well recognized in the art.
as §4

Row | IC50 [3] | Compound | inhibition in vivo at 0.1 mg/kg [1] | inhibition in vivo at 1 mg/kg [1] | inhibition in vivo at 10 mg/kg [1] | Uterine EPO (Vmax) ([2]; 0.1 mg/kg PO) | Uterine EPO (Vmax) ([2]; 1.0 mg/kg PO) | Uterine EPO (Vmax) ([2]; 10.0 mg/kg PO) | change in vivo at 0.1 mg/kg [4] | change in vivo at 1 mg/kg [4] | change in vivo at 10 mg/kg [4] | eosinophil infiltration into the uterus (in words) ([2]; stromal layer of ovariectomized rats)
1 | 2.3 nM | O=C(c1ccc(OCCN2CCCCC2)cc1)c1c(-c2ccc(O)c(Cl)c2)sc2cc(O)ccc12 [Example 5, [2-(3-Chloro-4-hydroxyphenyl)-6-hydroxybenzo[b]thien-3-yl][4-[2-(1-piperidinyl)ethoxy]phenyl]methanone] | 18.6% | 52.6% | 71.5% | 1.2 | 2.4 | 1.3 | -22.6% | 20.7% | 30.2% | 
2 | 10 nM | O=C(c1ccc(OCCN2CCCCC2)cc1)c1c(-c2ccccc2O)sc2cc(O)ccc12 [Example 10, [2-(2-Hydroxyphenyl)-6-hydroxybenzo[b]thien-3-yl][4-[2-(1-piperidinyl)ethoxy]phenyl]methanone] | 7.8% | 19.5% | 33.2% | 2.8 | 1.7 | 3.7 | -18.3% | -21% | 10.6% | 

Further lines, the molecule ahead of its results:

Row | Compound | IC50 [3] | inhibition in vivo at 0.1 mg/kg [1] | inhibition in vivo at 1 mg/kg [1] | inhibition in vivo at 10 mg/kg [1] | Uterine EPO (Vmax) ([2]; 0.1 mg/kg PO) | Uterine EPO (Vmax) ([2]; 1.0 mg/kg PO) | Uterine EPO (Vmax) ([2]; 10.0 mg/kg PO) | change in vivo at 0.1 mg/kg [4] | change in vivo at 1 mg/kg [4] | change in vivo at 10 mg/kg [4] | eosinophil infiltration into the uterus (in words) ([2]; stromal layer of ovariectomized rats)
3 | Cc1cc(-c2sc3cc(O)ccc3c2C(=O)c2ccc(OCCN3CCCCC3)cc2)ccc1O [Example 7, [2-(3-Methyl-4-hydroxyphenyl)-6-hydroxybenzo[b]thien-3-yl][4-[2-(1-piperidinyl)ethoxy]phenyl]methanone] | 1 nM | 53.7% | 77.6% | 49.7% | 4.9 | 2.5 | 2.8 | 7.6% | 15.6% | 24.6% | 
4 | COc1ccc2c(C(=O)c3ccc(OCCN4CCCCC4)cc3)c(-c3ccc(OC)c(OC)c3)sc2c1 [Example 8, [2-(3,4-Dimethoxyphenyl)-6-methoxybenzo[b]thien-3-yl][4-[2-(1-piperidinyl)ethoxy]phenyl]methanone] |  | 24.8% | 57.8% | 60.8% | 1.3 | 4.4 | 11.2 | -8.3% | 23.4% | 24.1% | 
5 | O=C(Oc1cccc(-c2sc3cc(OC(=O)c4ccccc4)ccc3c2C(=O)c2ccc(OCCN3CCCCC3)cc2)c1)c1ccccc1 [Example 13, [2-(3-Benzoyloxyphenyl)-6-benzoyloxybenzo[b]thien-3-yl][4-[2-(1-piperidinyl)ethoxy]phenyl]methanone] |  | 25.3% | 45.7% | 61.4% | 3.0 | 6.0 | 8.4 | -18.6% | 34.7% | 27.6% | 
6 | Cc1cc(O)ccc1-c1sc2cc(O)ccc2c1C(=O)c1ccc(OCCN2CCCCC2)cc1 [Example 16, [2-(2-Methyl-4-hydroxyphenyl)-6-hydroxybenzo[b]thien-3-yl][4-[2-(1-piperidinyl)ethoxy]phenyl]methanone] | 2 nM | 39.2% | 62.6% | 68.5% | 8.1 | 8.4 | 8.1 | 54.5% | 53.7% | 62.7% | 
7 | C[C@]12CC[C@@H]3c4ccc(O)cc4CC[C@H]3[C@@H]1CC[C@@H]2O [estradiol, reference compound] |  |  |  |  |  |  |  |  |  |  | substantial, expected increase in eosinophil infiltration

Source: patent US5998442A, “Benzo [B] thiophene compounds, and compositions for treating bone loss, and hyperlipidemia” (Eli Lilly and Company, priority 1997, dated 1999)
